Data published in US20160367623A1, “AGONISTS OF GUANYLATE CYCLASE USEFUL FOR THE TREATMENT OF GASTROINTESTINAL DISORDERS, INFLAMMATION, CANCER AND OTHER DISORDERS” (priority 2015, published 2016).
Bridge positions count the residues as written; N and C are the ends. Ends that are not written are not given here.

System: patients with chronic idiopathic constipation (CIC)
Test: Second phase 3 CIC trial: CSBM weekly responders by week
Format: in vivo, human
Details: MRA
From the text: Both trials include a two-week pre-treatment baseline period, a 12-week treatment period, and a two-week post-treatment period. The phase 3 CIC program was designed to support regulatory submission in the U. S.
The primary endpoint for both trials is the proportion of durable overall responders (%), which is the current regulatory endpoint required for U.S. approval in CIC. The FDA has defined a durable overall responder as a patient who fulfills both ≧3 complete spontaneous bowel movements (CSBMs) per week plus an increase of ≧1 CSBM from baseline in the same week, for 9 out of the 12 treatment weeks. In addition, the same patient must be an overall responder for at least 3 of the last 4 treatment weeks in order to be considered a durable overall responder.
Patients were selected using Rome 3 criteria modified for CIC and had (1) fewer than 3 defecations per week, (2) loose stools occurring rarely without laxatives, (3) inadequate criteria for irritable bowel syndrome with constipation (IBS-C), and (4) at least two of the following applied to at least 25% of defecations: (a) straining during evacuation, (b) lumpy or hard stools, (c) sensation of anorectal obstruction or blockage. Rome 3 requires patients to fulfill the criteria for the last 3 months with symptom onset at least 6 months prior to diagnosis.

[1] = Week 2, 6 mg, ITT Population-Excluding Duplicate Patients
[2] = Week 2, Active Combined, ITT Population-Excluding Duplicate Patients
[3] = Week 2, Active Combined, ITT Population
[4] = Week 3, 3 mg, ITT Population-Excluding Duplicate Patients
[5] = Week 3, 6 mg, ITT Population-Excluding Duplicate Patients
[6] = Week 3, Active Combined, ITT Population-Excluding Duplicate Patients
[7] = Week 3, Active Combined, ITT Population
[8] = Week 4, 3 mg, ITT Population-Excluding Duplicate Patients
[9] = Week 4, 6 mg, ITT Population-Excluding Duplicate Patients
[10] = Week 4, Active Combined, ITT Population-Excluding Duplicate Patients
[11] = Week 4, Active Combined, ITT Population
[12] = Week 5, 3 mg, ITT Population-Excluding Duplicate Patients
[13] = Week 5, 6 mg, ITT Population-Excluding Duplicate Patients
[14] = Week 5, Active Combined, ITT Population-Excluding Duplicate Patients

Asn^1-Asp^2-Glu^3-Cys^4-Glu^5-Leu^6-Cys^7-Val^8-Asn^9-Val^10-Ala^11-Cys^12-Thr^13-Gly^14-Cys^15-Leu^16 (NDECELCVNVACTGCL; disulfide 4-12, 7-15) [Plecanatide, uroguanylin analogue, guanylate cyclase-C agonist; (C4:C12, C7:C15) bicycle peptide]
Difference in Proportions (adjusted) (Week 2, 6 mg minus placebo, All Randomized (includes Duplicate Patients)): 0.114 | Odds Ratio (adjusted) (Week 2, 6 mg vs placebo, All Randomized (includes Duplicate Patients)): 0.513 | CSBM Weekly Responders, n (%) (Week 2, 6 mg, All Randomized (includes Duplicate Patients)): 132 (28.0) n (%) | CSBM Weekly Responders, n (%) (Week 2, 6 mg, ITT Population): 123 (27.4) n (%) | Non-Responders, n (%) (Week 2, 6 mg, ITT Population): 326 (72.6) n (%) | CSBM Weekly Responders, n (%) [1]: 123 (27.8) n (%) | Non-Responders, n (%) [1]: 320 (72.2) n (%) | CSBM Weekly Responders, n (%) (Week 2, Active Combined, All Randomized (includes Duplicate Patients)): 252 (26.8) n (%) | Difference in Proportions (adjusted) (Week 2, 3 mg minus placebo, ITT Population-Excluding Duplicate Patients): 0.086 | Difference in Proportions (adjusted) (Week 2, 3 mg minus placebo, ITT Population): 0.087 | Odds Ratio (adjusted) (Week 2, 3 mg vs placebo, ITT Population-Excluding Duplicate Patients): 0.592 | Odds Ratio (adjusted) (Week 2, 3 mg vs placebo, ITT Population): 0.59 | Difference in Proportions (adjusted) (Week 2, 6 mg minus placebo, ITT Population-Excluding Duplicate Patients): 0.111 | Difference in Proportions (adjusted) (Week 2, 6 mg minus placebo, ITT Population): 0.108 | Odds Ratio (adjusted) (Week 2, 6 mg vs placebo, ITT Population-Excluding Duplicate Patients): 0.523 | Odds Ratio (adjusted) (Week 2, 6 mg vs placebo, ITT Population): 0.53 | CSBM Weekly Responders, n (%) [2]: 233 (26.6) n (%) | Non-Responders, n (%) [2]: 644 (73.4) n (%) | CSBM Weekly Responders, n (%) [3]: 235 (26.3) n (%) | Non-Responders, n (%) [3]: 657 (73.7) n (%) | Difference in Proportions (adjusted) (Week 3, 3 mg minus placebo, All Randomized (includes Duplicate Patients)): 0.070 | Odds Ratio (adjusted) (Week 3, 3 mg vs placebo, All Randomized (includes Duplicate Patients)): 0.691 | CSBM Weekly Responders, n (%) (Week 3, 3 mg, All Randomized (includes Duplicate Patients)): 135 (28.7) n (%) | CSBM Weekly Responders, n (%) (Week 3, 3 mg, ITT Population): 125 (28.2) n (%) | Non-Responders, n (%) (Week 3, 3 mg, ITT Population): 318 (71.8) n (%) | CSBM Weekly Responders, n (%) [4]: 122 (28.1) n (%) | Non-Responders, n (%) [4]: 312 (71.9) n (%) | Difference in Proportions (adjusted) (Week 3, 6 mg minus placebo, All Randomized (includes Duplicate Patients)): 0.056 | Odds Ratio (adjusted) (Week 3, 6 mg vs placebo, All Randomized (includes Duplicate Patients)): 0.738 | CSBM Weekly Responders, n (%) (Week 3, 6 mg, ITT Population): 120 (26.7) n (%) | Non-Responders, n (%) (Week 3, 6 mg, ITT Population): 329 (73.3) n (%) | CSBM Weekly Responders, n (%) [5]: 119 (26.9) n (%) | Non-Responders, n (%) [5]: 324 (73.1) n (%) | Difference in Proportions (adjusted) (Week 3, 3 mg minus placebo, ITT Population-Excluding Duplicate Patients): 0.054 | Difference in Proportions (adjusted) (Week 3, 3 mg minus placebo, ITT Population): 0.057 | Odds Ratio (adjusted) (Week 3, 3 mg vs placebo, ITT Population-Excluding Duplicate Patients): 0.750 | Odds Ratio (adjusted) (Week 3, 3 mg vs placebo, ITT Population): 0.739 | Difference in Proportions (adjusted) (Week 3, 6 mg minus placebo, ITT Population-Excluding Duplicate Patients): 0.042 | Difference in Proportions (adjusted) (Week 3, 6 mg minus placebo, ITT Population): 0.043 | Odds Ratio (adjusted) (Week 3, 6 mg vs placebo, ITT Population-Excluding Duplicate Patients): 0.798 | Odds Ratio (adjusted) (Week 3, 6 mg vs placebo, ITT Population): 0.796 | CSBM Weekly Responders, n (%) [6]: 241 (27.5) n (%) | Non-Responders, n (%) [6]: 636 (72.5) n (%) | CSBM Weekly Responders, n (%) [7]: 245 (27.5) n (%) | Non-Responders, n (%) [7]: 647 (72.5) n (%) | Difference in Proportions (adjusted) (Week 4, 3 mg minus placebo, All Randomized (includes Duplicate Patients)): 0.093 | Odds Ratio (adjusted) (Week 4, 3 mg vs placebo, All Randomized (includes Duplicate Patients)): 0.611 | CSBM Weekly Responders, n (%) (Week 4, 3 mg, ITT Population): 132 (29.8) n (%) | Non-Responders, n (%) (Week 4, 3 mg, ITT Population): 311 (70.2) n (%) | CSBM Weekly Responders, n (%) [8]: 130 (30.0) n (%) | Non-Responders, n (%) [8]: 304 (70.0) n (%) | Difference in Proportions (adjusted) (Week 4, 6 mg minus placebo, All Randomized (includes Duplicate Patients)): 0.082 | Odds Ratio (adjusted) (Week 4, 6 mg vs placebo, All Randomized (includes Duplicate Patients)): 0.644 | CSBM Weekly Responders, n (%) (Week 4, 6 mg, ITT Population): 127 (28.3) n (%) | Non-Responders, n (%) (Week 4, 6 mg, ITT Population): 322 (71.7) n (%) | CSBM Weekly Responders, n (%) [9]: 126 (28.4) n (%) | Non-Responders, n (%) [9]: 317 (71.6) n (%) | Difference in Proportions (adjusted) (Week 4, 3 mg minus placebo, ITT Population-Excluding Duplicate Patients): 0.082 | Difference in Proportions (adjusted) (Week 4, 3 mg minus placebo, ITT Population): 0.082 | Odds Ratio (adjusted) (Week 4, 3 mg vs placebo, ITT Population-Excluding Duplicate Patients): 0.650 | Odds Ratio (adjusted) (Week 4, 3 mg vs placebo, ITT Population): 0.648 | Difference in Proportions (adjusted) (Week 4, 6 mg minus placebo, ITT Population-Excluding Duplicate Patients): 0.067 | Difference in Proportions (adjusted) (Week 4, 6 mg minus placebo, ITT Population): 0.067 | Odds Ratio (adjusted) (Week 4, 6 mg vs placebo, ITT Population-Excluding Duplicate Patients): 0.698 | Odds Ratio (adjusted) (Week 4, 6 mg vs placebo, ITT Population): 0.697 | CSBM Weekly Responders, n (%) [10]: 256 (29.2) n (%) | Non-Responders, n (%) [10]: 621 (70.8) n (%) | CSBM Weekly Responders, n (%) [11]: 259 (29.0) n (%) | Non-Responders, n (%) [11]: 633 (71.0) n (%) | Difference in Proportions (adjusted) (Week 5, 3 mg minus placebo, All Randomized (includes Duplicate Patients)): 0.119 | Odds Ratio (adjusted) (Week 5, 3 mg vs placebo, All Randomized (includes Duplicate Patients)): 0.560 | CSBM Weekly Responders, n (%) (Week 5, 3 mg, ITT Population): 154 (34.8) n (%) | Non-Responders, n (%) (Week 5, 3 mg, ITT Population): 289 (65.2) n (%) | CSBM Weekly Responders, n (%) [12]: 153 (35.3) n (%) | Non-Responders, n (%) [12]: 281 (64.7) n (%) | Difference in Proportions (adjusted) (Week 5, 6 mg minus placebo, All Randomized (includes Duplicate Patients)): 0.061 | Odds Ratio (adjusted) (Week 5, 6 mg vs placebo, All Randomized (includes Duplicate Patients)): 0.731 | CSBM Weekly Responders, n (%) (Week 5, 6 mg, ITT Population): 133 (29.6) n (%) | Non-Responders, n (%) (Week 5, 6 mg, ITT Population): 316 (70.4) n (%) | CSBM Weekly Responders, n (%) [13]: 132 (29.8) n (%) | Non-Responders, n (%) [13]: 311 (70.2) n (%) | Difference in Proportions (adjusted) (Week 5, 3 mg minus placebo, ITT Population-Excluding Duplicate Patients): 0.107 | Difference in Proportions (adjusted) (Week 5, 3 mg minus placebo, ITT Population): 0.105 | Odds Ratio (adjusted) (Week 5, 3 mg vs placebo, ITT Population-Excluding Duplicate Patients): 0.596 | Odds Ratio (adjusted) (Week 5, 3 mg vs placebo, ITT Population): 0.602 | Difference in Proportions (adjusted) (Week 5, 6 mg minus placebo, ITT Population-Excluding Duplicate Patients): 0.053 | Difference in Proportions (adjusted) (Week 5, 6 mg minus placebo, ITT Population): 0.054 | Odds Ratio (adjusted) (Week 5, 6 mg vs placebo, ITT Population-Excluding Duplicate Patients): 0.764 | Odds Ratio (adjusted) (Week 5, 6 mg vs placebo, ITT Population): 0.762 | CSBM Weekly Responders, n (%) [14]: 285 (32.5) n (%) | Non-Responders, n (%) [14]: 592 (67.5) n (%) | CSBM Weekly Responders, n (%) (Week 5, Active Combined, ITT Population): 287 (32.2) n (%)
